# Laboratory results published in the supplement of paper PMC7214452.
# What was measured:
# Assay in all cases: normalized area under the dose-response curve (viability relative to DMSO control) (fraction); higher = less sensitive (more viable cells)
# Settings in all cases: exposure time not given
# [1] = system: L363 (cancer type: MM)
# Method: (§1)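 25 myeloma and 15 non-Hodgkin lymphoma cell lines were exposed to each of 76 drugs as 7-point log dilutions (0.01 nM–10 µM) in duplicate. Viability was read with CellTiter-Glo and normalised to DMSO (0.1%) and staurosporine (10 µM) plate controls. Normalised AUC was calculated by the trapezoidal method relative to the negative control.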
# [2] = system: FR4 (cancer type: MM)
# Method: as §1
# [3] = system: OPM2 (cancer type: MM)
# Method: as §1
# [4] = system: My-La (cancer type: TCL)
# Method: as §1
# [5] = system: OCI-MY5/CRBN (cancer type: MM)
# Method: as §1
# [6] = system: MM1.S (cancer type: MM)
# Method: as §1
# [7] = system: U266 (cancer type: MM)
# Method: as §1
# [8] = system: JJN3 (cancer type: MM)
# Method: as §1
# [9] = system: LP1 (cancer type: MM)
# Method: as §1
# [10] = system: XG2 (cancer type: MM)
# Method: as §1
# [11] = system: SKMM2 (cancer type: MM)
# Method: as §1
# [12] = system: SR-786 (cancer type: TCL)
# Method: as §1
# [13] = system: SU-DHL6 (cancer type: DLBCL)
# Method: as §1
# [14] = system: SU-DHL2 (cancer type: DLBCL)
# Method: as §1
# [15] = system: NCI-H929 (cancer type: MM)
# Method: as §1
# [16] = system: OCI-LY3 (cancer type: DLBCL)
# Method: as §1
# [17] = system: EJM (cancer type: MM)
# Method: as §1
# [18] = system: AMO1 (cancer type: MM)
# Method: as §1
# [19] = system: HuT 78 (cancer type: TCL)
# Method: as §1
# [20] = system: Granta-519 (cancer type: Mantle)
# Method: as §1
# [21] = system: KMS11 (cancer type: MM)
# Method: as §1
# [22] = system: KMS28PE (cancer type: MM)
# Method: as §1
# [23] = system: MM1.R (cancer type: MM)
# Method: as §1
# [24] = system: Se-Ax (cancer type: TCL)
# Method: as §1
# [25] = system: KMS34 (cancer type: MM)
# Method: as §1
# [26] = system: Mino (cancer type: Mantle)
# Method: as §1
# [27] = system: KMS18 (cancer type: MM)
# Method: as §1
# [28] = system: OCI-MY5/Vec (cancer type: MM)
# Method: as §1
# [29] = system: RPMI 8226 (cancer type: MM)
# Method: as §1
# [30] = system: OCI-LY19 (cancer type: DLBCL)
# Method: as §1
# [31] = system: KMS28BM (cancer type: MM)
# Method: as §1
# [32] = system: SU-DHL1 (cancer type: TCL)
# Method: as §1
# [33] = system: JVM2 (cancer type: Mantle)
# Method: as §1
# [34] = system: OCI-MY5 (cancer type: MM)
# Method: as §1
# [35] = system: JeKo-1 (cancer type: Mantle)
# Method: as §1
# [36] = system: OCI-LY1 (cancer type: DLBCL)
# Method: as §1
# [37] = system: KMS12PE (cancer type: MM)
# Method: as §1
# [38] = system: Karpas-299 (cancer type: TCL)
# Method: as §1
# [39] = system: KMS26 (cancer type: MM)
# Method: as §1
# [40] = system: OCI-MY7 (cancer type: MM)
# Method: as §1
SMILES,normalized area under the dose-response curve [1],normalized area under the dose-response curve [2],normalized area under the dose-response curve [3],normalized area under the dose-response curve [4],normalized area under the dose-response curve [5],normalized area under the dose-response curve [6],normalized area under the dose-response curve [7],normalized area under the dose-response curve [8],normalized area under the dose-response curve [9],normalized area under the dose-response curve [10],normalized area under the dose-response curve [11],normalized area under the dose-response curve [12],normalized area under the dose-response curve [13],normalized area under the dose-response curve [14],normalized area under the dose-response curve [15],normalized area under the dose-response curve [16],normalized area under the dose-response curve [17],normalized area under the dose-response curve [18],normalized area under the dose-response curve [19],normalized area under the dose-response curve [20],normalized area under the dose-response curve [21],normalized area under the dose-response curve [22],normalized area under the dose-response curve [23],normalized area under the dose-response curve [24],normalized area under the dose-response curve [25],normalized area under the dose-response curve [26],normalized area under the dose-response curve [27],normalized area under the dose-response curve [28],normalized area under the dose-response curve [29],normalized area under the dose-response curve [30],normalized area under the dose-response curve [31],normalized area under the dose-response curve [32],normalized area under the dose-response curve [33],normalized area under the dose-response curve [34],normalized area under the dose-response curve [35],normalized area under the dose-response curve [36],normalized area under the dose-response curve [37],normalized area under the dose-response curve [38],normalized area under the dose-response curve [39],normalized area under the dose-response curve [40]
Cc1cccc(/C=N/Nc2cc(N3CCOCC3)n3nc(-c4ccncc4)cc3n2)c1 [apy0201],0.516,0.578,0.504,0.885,0.867,0.65,0.564,0.311,0.81,0.511,0.826,0.601,0.77,0.897,0.43,0.863,0.769,0.415,0.57,0.93,0.508,0.736,0.69,0.673,0.269,0.709,0.756,0.794,0.706,0.634,0.822,0.682,0.831,0.447,0.681,0.655,0.41,0.648,0.688,0.65
Cc1sc2c(c1C)C(c1ccc(Cl)cc1)=N[C@@H](CC(=O)OC(C)(C)C)c1nnc(C)n1-2 [jq1],0.529,0.613,0.671,0.747,0.645,0.53,0.852,0.57,0.65,0.747,0.672,0.647,0.829,0.635,0.53,0.707,0.703,0.48,0.566,0.899,0.654,0.647,0.55,0.566,0.501,0.598,0.813,0.57,0.616,0.679,0.78,0.674,0.564,0.488,0.684,0.812,0.65,0.661,0.475,0.39
Cc1sc2c(c1C)C(c1ccc(Cl)cc1)=N[C@@H](CC(=O)Nc1ccc(O)cc1)c1nnc(C)n1-2 [otx-015],0.545,0.732,0.7,0.796,0.641,0.56,0.62,0.568,0.701,0.622,0.657,0.695,0.757,0.558,0.54,0.759,0.685,0.497,0.859,0.902,0.656,0.681,0.61,0.657,0.514,0.595,0.713,0.563,0.642,0.637,0.801,0.729,0.609,0.491,0.84,0.752,0.59,0.628,0.395,0.4
